In patent publication US20250127857A1, “A COMPOSITION COMPRISING IL-36 AND/OR IL-18 FOR USE IN TREATING OCULAR DISORDERS” (THE PROVOST, FELLOWS, FOUNDATION SCHOLARS, & THE OTHER …, priority 2021, published 2025):

Experiments:
[1] = test system: VEGFR2; experiment: qPCR of VEGFR levels in HRMEC treated with IL-18; assay type: cell-based, human; conditions: IL-18 100 ng/ml over timepoints
Protocol: FIG. 15 illustrates IL-18 reduces expression of VEGFR2 specifically in Human retinal endothelial cells (HRMECs), wherein HRMECs were treated with IL-18 (100 ng/ml) over timepoints indicated, wherein cells lysates were prepared for RNA isolation and underwent qPCR and ddCt method to assess relative expression of VEGFR levels, using B-actin as reference control, wherein RT-PCR data are means±SEM of n=3 independent experiments;
Confluent HRMECs were stimulated with 50 or 100 ng/ml of recombinant human IL-18 (SB-485232; GSK); 10 ng/ml of human IL-1α (R&D systems) or 50 ng/ml of human VEGF165 (Peprotech) diluted in complete growth medium, with complete growth media added to wells alone for ‘no treatment’. […]
All RT-PCR assays were carried out using the SensiFAST SYBR Hi-ROX Kit (Bioline) with primers designed using Primer-BLAST (NCBI). […] Data were analysed using the QuantStudio™ Design & Analysis software (Applied Biosystems) and using the comparative Ct (ΔΔCt) method where test samples were normalised to endogenous control (β-Actin) followed by normalising the ΔCt of test samples to sample control (untreated sample), then calculating 2^−ΔΔCt to find the relative fold change of test samples over sample control.

[2] = test system: VEGF; experiment: VEGF in HOCFs treated with IL-18; assay type: cell-based, human; conditions: IL-18 100 ng/ml over 24 h
Protocol: (§1) FIG. 20 illustrates IL-18 activates human ocular choroidal fibroblasts and inhibits VEGF secretion, wherein (A) is human ocular choroidal fibroblast (HOCFs) treated with IL-18 at increasing doses for 8 h, wherein cells were fixed and stained with antibody targeting intermediate filament vimentin (red), Hoechst (blue) and phalloidin (green); (B) is HOCFs treated with IL-18 (100 ng/ml) over 60 mins and immunoblotted for phospho-ERK and phospo-p65 with B-actin and GAPDH as controls; (C) is HOCFs treated with IL-18 (100 ng/ml) over 24 h as indicated, wherein cells were analysed for VEGF expression by qPCR (D) is HOCFs treated with 10, 100 or 1000 ng/ml of IL-18 as indicated over 48 h and cell death was analysed by LDH assay;

[3] = test system: VEGF; experiment: Retinal VEGF ELISA in JR5558 mice; assay type: in vivo, mouse; conditions: JR5558 mice 3 weeks old, 100 μg/kg i.p. on 4 consecutive days, retinas isolated day 8
Protocol: FIG. 14 illustrates IL-18 can inhibit VEGF secretion in vivo and in vitro, wherein JR5558 mice at 3 weeks (A) were injected (i.p.) with saline (0 μg/kg) or IL-18 (100 μg/kg) on 4 consecutive days (day 1-4), wherein retinas were isolated on day 8 and VEGF concentration in protein lysates was determined using an appropriate ELISA, wherein data are presented as mean±SEM (n=4-5 animals per each treatment group) and expressed as pg of VEGF per mg of total retinal protein as measured by the BCA assay, *p<0.05 by one-way ANOVA with Tukey post test compared to saline controls; (B) is primary human foetal RPE (hfRPE) cells were treated with control medium (0 ng/ml) or a single dose of IL-18 (1000 ng/ml) for 1 to 72 hours, wherein VEGF concentration in the cell-free supernatants was measured at each time point, wherein rate of VEGF secretion was calculated from the slope of linear regression of VEGF concentration (pg/ml) against time (hours) (C), wherein data are presented as mean±SEM and represent a single experiment carried out in triplicate *p<0.05, ***p<0.001 by Student's t test compared to control at each time point;

[4] = biological target: T1, IL-18BP (Homo sapiens, UniProt O95998); conditions: 1:1 stoichiometry; used for free IL-18 calculation (Migliorini et al., 2010); read-out: dissociation constant (Kd) of the IL-18/IL-18BP complex; cited from earlier work
T1 sequence (O95998 31-194): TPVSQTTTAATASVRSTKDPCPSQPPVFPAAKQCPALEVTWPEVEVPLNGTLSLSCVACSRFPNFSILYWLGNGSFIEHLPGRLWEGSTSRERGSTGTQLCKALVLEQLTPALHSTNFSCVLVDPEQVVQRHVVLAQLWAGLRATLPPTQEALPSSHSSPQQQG

[5] = test system: human ocular choroidal fibroblasts (HOCFs); experiment: Activation of human ocular choroidal fibroblasts (vimentin/phalloidin staining); assay type: cell-based; conditions: IL-18 increasing doses, 8 h
Protocol: as §1

[6] = test system: laser induced CNV in WT mice; experiment: Mesenchymal cell infiltration/activation after laser induced CNV, 3 days; assay type: in vivo, mouse
Protocol: (§2) FIG. 22 illustrates increased mesenchymal cell infiltration/activation in animals injected with IL-18 intrperitoneally, wherein WT mice underwent laser induced CNV and were injected IP with IL-18 (100 ug/kg), wherein 3 days later eyes were enucleated, flatmounts were stained with F4/80, vimentin and isolectin and imaged by confocal microscopy;
as §2, with “23” for “22”, “intra-vitreally,” for “intrperitoneally,”, “intravitreally” for “IP”, “(0.3ng/eye),” for “(100 ug/kg),”

[7] = test system: laser induced CNV in WT mice; experiment: Fibrovascular scarring after laser induced CNV, 14 days; assay type: in vivo, mouse; conditions: IL-18 0.3ng/eye intravitreally, vs vehicle control
Protocol: FIG. 24 illustrates IL-18 reduces the area of fibrovascular scarring, wherein WT mice underwent laser induced CNV and were injected intravitreally with IL-18 (0.3ng/eye), wherein 14 days later eyes were enucleated, flatmounts were stained with F4/80, vimentin and isolectin and imaged by confocal microscopy; and […]

IL-18: recombinant human IL-18 (SB-485232; GSK)
VEGFR2 expression [1]: specifically reduces VEGFR2
baseline secretion of VEGF from HOCFs [2]: strongly reduces the baseline secretion of VEGF
VEGF levels in the retinas [3]: significantly decreased
Kd [4]: 0.4 nM
HOCF activation / morphology [5]: activates HOCFs causing them to change morphology
vimentin staining at CNV lesion ([6]; IL-18 0.3ng/eye intravitreally): driving vimentin positive cells to encapsulate the neovascular lesion
vimentin staining at CNV lesion ([6]; IL-18 100 ug/kg intra-peritoneally): increased vimentin
vimentin positive staining (area of fibrovascular scarring) [7]: less vimentin positive staining
